Measured values from paper PMC12903969, “Discovery of a Novel and Potent Kir4.1 Inhibitor as a Safe and Rapid‐Onset Antidepressant Agent in Mice” (Advanced Science, 2025).
“And” between values parts separate entries of the source, which are not always exact repeats. Equal entries are not always repeated. Where two headings read alike, the source gives them in different places.

Key:
Kir4.1 T128A = target: T1, Kir4.1 T128A (Homo sapiens, UniProt P78508, T128A); assay: Whole-cell patch clamp, Kir4.1 point mutant T128A; type: cell-based
T1 construct: expressed in transfected cells; host or cells: CHO-K1
T1 sequence (P78508 1-379 T128A): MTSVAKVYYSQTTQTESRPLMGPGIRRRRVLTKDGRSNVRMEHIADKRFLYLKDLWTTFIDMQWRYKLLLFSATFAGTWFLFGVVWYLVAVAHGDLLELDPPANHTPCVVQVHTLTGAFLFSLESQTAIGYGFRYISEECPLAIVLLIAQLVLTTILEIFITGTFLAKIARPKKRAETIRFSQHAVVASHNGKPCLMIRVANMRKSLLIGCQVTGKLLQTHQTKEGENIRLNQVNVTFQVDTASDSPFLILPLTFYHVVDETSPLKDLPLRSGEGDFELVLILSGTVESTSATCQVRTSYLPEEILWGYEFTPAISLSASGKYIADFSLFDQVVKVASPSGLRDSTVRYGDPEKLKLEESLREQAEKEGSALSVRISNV
Protocol: (§1) Plasmids encoding WT human potassium channels Kir1.1, Kir2.1, Kir2.2, Kir4.1, and Kir4.2 were obtained from the Beijing Genomics Institute. All point mutations were constructed using the QuickChange II Site‐Directed Mutagenesis Kit (Stratagene) and subsequently verified by sequencing.
(§2) CHO‐K1 cells were maintained in DMEM/F12 growth medium containing 10% fetal bovine serum. Plasmids encoding the target genes (3600 ng) and enhanced green fluorescent protein (400 ng) were cotransfected into cells using Lipofectamine 2000 (Invitrogen) in accordance with the manufacturer's instructions. Cells were seeded onto poly‐d‐lysine (PDL)‐coated glass coverslips 1 h prior to electrophysiological recordings. All cells were cultured under standard conditions of 5% CO2 at 37 °C.
(§3) Whole‐cell patch‐clamp recordings were obtained either in transiently transfected CHO‐K1 cells or in primary cultured astrocytes at room temperature using standard patch‐clamp techniques with an Axopatch‐700B amplifier (Axon Instruments). The signals were filtered at 2 kHz and sampled at 20 kHz using the Digidata 1440A interface (Axon Instruments). The resistance of borosilicate glass pipettes was typically 2–4 MΩ when filled with the internal solution. Drug application was facilitated using a BPS perfusion system (ALA Scientific Instruments). Macroscopic currents generated by expressed potassium channels were recorded under the voltage‐clamp conditions with an internal pipette solution composed of (in mM): 140 KCl, 5 NaCl, 1 CaCl2, 1 MgCl2, 10 HEPES, and 10 EGTA, pH 7.2 adjusted with KOH. The external solution contained (in mM): 140 NaCl, 5 KCl, 2 CaCl2, 1 MgCl2, 10 glucose, and 10 HEPES, pH 7.4 adjusted with NaOH. Currents were elicited with a hyperpolarized voltage at −120 mV from the holding potential of −80 mV, followed by a ramp voltage depolarizing to +50 mV. Astrocytic resting membrane potentials were recorded under current‐clamp conditions (I = 0 pA) using standard internal and external solutions, determined immediately after achieving whole‐cell mode.

Kir4.1 T155A = target: T2, Kir4.1 T155A (Homo sapiens, UniProt P78508, T155A); assay: Whole-cell patch clamp, Kir4.1 point mutant T155A; type: cell-based; conditions: JX3212 3 µM (Fig 2D)
T2 construct: expressed in transfected cells; host or cells: CHO-K1
Protocol: as §1
as §2, with “All cells were cultured under standard conditions of 5% CO2 at 37 °C.” left out
(§4) Whole‐cell patch‐clamp recordings were obtained either in transiently transfected CHO‐K1 cells or in primary cultured astrocytes at room temperature using standard patch‐clamp techniques with an Axopatch‐700B amplifier (Axon Instruments). […] Macroscopic currents generated by expressed potassium channels were recorded under the voltage‐clamp conditions with an internal pipette solution composed of (in mM): 140 KCl, 5 NaCl, 1 CaCl2, 1 MgCl2, 10 HEPES, and 10 EGTA, pH 7.2 adjusted with KOH. […] Astrocytic resting membrane potentials were recorded under current‐clamp conditions (I = 0 pA) using standard internal and external solutions, determined immediately after achieving whole‐cell mode.

mice [1] = assay: Hippocampal inflammatory cytokines (IL-6, TNF-α) after 14-day administration; type: in vivo; design: IL-6 / TNF-α: unit not given here; conditions: for IL-6 / TNF-α: hippocampus, 14-day administration, individual animals
mice [2] = assay: Y-maze; type: in vivo; conditions: chronic 10 mg kg−1 per day
Protocol: This test was designed to evaluate spatial working memory. Briefly, mice were individually placed in a symmetrical Y‐maze and allowed to explore for 8 min. Entries were counted only when both hind paws crossed the arm threshold. Correct spatial alternation was defined as an entry into all three arms in an uninterrupted sequence (e.g., ABC, BCA or CAB each representing one alternation). The alternation percentage was derived as: [correct alternations/(total entries–2)] × 100%. After each session, the walls and floor of the maze were wiped with 75% ethanol and allowed to dry before the next animal was tested.

Kir2.2 = target: T3, Kir2.2 (Homo sapiens, UniProt Q14500); assay: Whole-cell patch clamp, Kir2.2; type: cell-based; conditions: mean ± SEM
T3 construct: host or cells: CHO-K1
Protocol: as §1
as §2, with “All cells were cultured under standard conditions of 5% CO2 at 37 °C.” left out
as §4

KCNQ2 = KCNQ2 (Homo sapiens, UniProt O43526); assay: KCNQ2 channel inhibition; type: cell-based; design: KCNQ2 inhibition, single recordings: unit not given here
Description: as §3

[3] = Brain penetration (plasma and brain concentration, LC-MS/MS); type: in vivo, mice; conditions: for Kp at 1 h / concentration at 1 h: male, C57BL/6J, mouse; for Kp at 1 h: brain and plasma, read-out: Brain/Plasma concentration ratio; for concentration at 1 h: 1 h post-dosing
Protocol: Male C57BL/6J mice were used for both blood–brain penetration and plasma/tissue distribution studies, with mice assigned to three groups: 10 mg kg^−1 JX3212 (n = 3), 20 mg kg^−1 JX3212 (n = 3) for blood–brain penetration, and 10 mg kg^−1 JX3212 for plasma/tissue distribution (all administered via intraperitoneal injection), where mice in the blood–brain penetration groups were fasted for 12 h prior to drug administration and 2 h post‐administration; 1 h after drug administration, 0.2 mL of blood was collected from the retro‐orbital/orbital venous plexus into 1.5 mL heparinized tubes, centrifuged at 11 000 rpm for 5 min to obtain plasma (stored at −80 °C for blood–brain penetration groups), while whole brains were excised for blood–brain penetration groups and whole brains plus kidneys (rinsed with physiological saline, blotted dry on filter paper, and accurately weighed) for the plasma/tissue distribution group; plasma samples (20 µL) were mixed with 20 µL internal standard solution and 300 µL acetonitrile for protein precipitation, vortexed for 15 min, centrifuged at 3700 rpm for 15 min at 4 °C, and the supernatant was collected, whereas brain and kidney samples were homogenized in acetonitrile at 10× tissue weight (8000 rpm, 3 × 30 s), sonicated for 5 min, and processed identically to plasma samples; the concentrations of JX3212 in plasma and tissues were quantified by liquid chromatography–tandem mass spectrometry (LC−MS/MS), with lower limits of quantification set to 50 ng mL^−1 for plasma and 50 ng g^−1 for brain tissue.

[4] = mice, 10 mg/kg i.p., 1 h, 10 mg/kg
[5] = mice, 20 mg/kg i.p., 1 h, 20 mg/kg

T2 sequence (P78508 whole entry T155A): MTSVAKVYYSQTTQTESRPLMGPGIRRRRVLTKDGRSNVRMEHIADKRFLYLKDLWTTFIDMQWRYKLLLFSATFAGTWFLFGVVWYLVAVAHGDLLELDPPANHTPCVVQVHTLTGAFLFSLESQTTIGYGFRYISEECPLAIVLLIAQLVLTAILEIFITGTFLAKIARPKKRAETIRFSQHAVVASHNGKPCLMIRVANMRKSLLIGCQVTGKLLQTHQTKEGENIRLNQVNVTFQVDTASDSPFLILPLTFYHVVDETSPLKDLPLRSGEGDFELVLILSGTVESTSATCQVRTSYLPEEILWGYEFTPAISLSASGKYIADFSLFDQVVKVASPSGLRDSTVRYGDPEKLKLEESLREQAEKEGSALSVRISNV
T3 sequence (Q14500 whole entry): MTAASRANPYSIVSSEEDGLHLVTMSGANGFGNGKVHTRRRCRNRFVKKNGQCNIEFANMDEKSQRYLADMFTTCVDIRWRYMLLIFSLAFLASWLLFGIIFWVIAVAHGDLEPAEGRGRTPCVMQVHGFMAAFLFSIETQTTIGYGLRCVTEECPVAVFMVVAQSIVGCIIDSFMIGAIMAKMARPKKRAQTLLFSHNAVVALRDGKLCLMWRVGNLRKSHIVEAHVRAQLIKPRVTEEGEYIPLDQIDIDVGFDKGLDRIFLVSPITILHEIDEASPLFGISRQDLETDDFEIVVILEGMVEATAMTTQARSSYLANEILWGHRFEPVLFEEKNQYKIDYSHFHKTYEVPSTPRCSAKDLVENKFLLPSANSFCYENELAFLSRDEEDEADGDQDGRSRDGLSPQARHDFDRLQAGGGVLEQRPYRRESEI

In the case of `c1ccc2c(c1)oc1ccc(Nc3ccnc(NCCCN4CCOCC4)n3)cc12` [JX3212, N^4-(dibenzo[b,d]furan-2-yl)-N^2-(3-morpholinopropyl)pyrimidine-2,4-diamine], the inhibition at 3 µM (Kir4.1 T128A; 3 µM, mean ± SEM, read-out: current inhibition, Kir4.1 T128A) is reported as 33.9 ± 4.58%, the “Mutation: T128A inhibition, single recordings” value (Kir4.1 T128A; JX3212 3 µM (Fig 2D)) is reported as 37.4256 and 28.9608 and 38.1757 and the inhibition at 3 µM (Kir4.1 T128A; JX3212 3 µM (Fig 2D), read-out: Mutation: T128A inhibition, single recordings) is reported as 31.1%. The “Mutation: T155A inhibition, single recordings” value (Kir4.1 T155A) was 94.2403 and 81.3915 and 95.4304, the inhibition at 3 µM (Kir4.1 T155A; read-out: Mutation: T155A inhibition, single recordings) was 94.3% and the “hippocampal interleukin-6 level (in words)” value (mice [1]; 3/10 mg kg−1 for 14 days) was “did not elevate”. The “hippocampal tumor necrosis factor-alpha level (in words)” value (mice [1]; 3/10 mg kg−1 for 14 days) was “did not elevate”, the IL-6 (mice [1]; 3 mg/kg) was 45.0571 and 32.8331 and 24.8073 and 32.2935 and 22.1265 and 25.6335 and 36.1041 and 30.8941 and 28.8202 and 44.6187 and 40.1844 and 35.7837 and 22.7841 and 20.9462 and 42.3088 and the TNF-α (mice [1]; 3 mg/kg) was 465.065 and 545.129 and 550.438 and 437.245 and 389.037 and 473.135 and 223.18 and 189.621 and 460.606 and 247.598 and 569.127 and 488.638 and 325.113 and 294.957. For the same compound, the IL-6 (mice [1]; 10 mg/kg) was 35.0924 and 32.8836 and 20.727 and 32.5464 and 25.9876 and 35.1767 and 33.4906 and 33.3389 and 29.4778 and 46.0519 and 38.6332 and 35.1936 and 20.9968 and 23.4416 and 42.3425, the TNF-α (mice [1]; 10 mg/kg) was 489.276 and 552.137 and 604.805 and 420.68 and 480.356 and 484.816 and 216.59 and 243.988 and 478.02 and 253.544 and 531.962 and 451.261 and 319.804 and 494.16 and the “Y-maze alternation percentage vs vehicle (in words)” value (mice [2]) was “showed no effects”. For the same compound, the inhibition at 3 µM (Kir2.2) was 14.3 ± 8.36%, the IC50 (KCNQ2) was 5.99 µM and the “KCNQ2 inhibition, single recordings” value (KCNQ2; concentration 3) was 22.0588 and 21.8921 and 13.4681. For the same compound, the “KCNQ2 inhibition, single recordings” value (KCNQ2; concentration 10) was 79.5346 and 67.5255 and 78.5615, the “KCNQ2 inhibition, single recordings” value (KCNQ2; concentration 30 (unit not given)) was 97.6879 and 84.1578 and 95.4545 and the Kp at 1 h ([3]; ip, 10 mg/kg, mice, 10 mg/kg i.p., 1 h) was > 10. The Kp at 1 h ([3]; ip, 20 mg/kg, mice, 20 mg/kg i.p., 1 h) was 12.9 ± 1, the concentration at 1 h ([3]; brain, intraperitoneal, 10 mg/kg, converted from 2533.3 ng/mL, read-out: brain concentration expressed as molar) was ~6.3 µM and the concentration at 1 h ([3]; brain, ip, 10 mg/kg, mice, 10 mg/kg i.p., read-out: Brain Calculated Concentration) was 2530 ± 745 ng/mL. For the same compound, the concentration at 1 h ([3]; brain, ip, 20 mg/kg, mice, 20 mg/kg i.p., read-out: Brain Calculated Concentration) was 6690 ± 816 ng/mL, the concentration at 1 h ([3]; plasma, ip, 10 mg/kg, mice, 10 mg/kg i.p., mean ± SD, read-out: Plasma Calculated Concentration) was 234 ± 14.4 ng/mL and the concentration at 1 h ([3]; plasma, ip, 20 mg/kg, mice, 20 mg/kg i.p., read-out: Plasma Calculated Concentration) was 521 ± 63.3 ng/mL. For the same compound, the Brain/Plasma concentration ratio [3, 4] was 10.72, the “logBB (blood–brain partitioning coefficient)” value [3, 4] was 1.02 ± 0.10 and > 1 and 1.02 and the Brain/Plasma concentration ratio [3, 5] was > 10. For the same compound, the logBB [3, 5] was 1.11 ± 0.03 and > 1.
